In the NIST ThermoML archive (doi:10.1021/je401066j):
Numbers after ± are expanded uncertainties.

Conditions: 101 kPa, Liquid mixture 1, Drop volume

Molecule `CCCCCC` [hexane] + O has an interfacial tension (288.2 K) of 51.4 ± 0.4 mN/m, an interfacial tension (293.2 K) of 51 ± 0.4 mN/m and an interfacial tension (298.2 K) of 50.7 ± 0.4 mN/m. For the same molecule, the interfacial tension (303.2 K) was 50.4 ± 0.4 mN/m and the interfacial tension (308.2 K) was 50.2 ± 0.4 mN/m.
